Earlier results in US20240299549A1, “STABLE FORMULATIONS OF INDOCYANINE GREEN” (PROVEPHARM LIFE SOLUTIONS, priority 2021, published 2024).

Columns and labels:
[1] = stored at 4° C. in the dark, three days
[2] = 10 hours of storage in water and direct light

For `CC1(C)C(/C=C/C=C/C=C/C=C2\N(CCCCS(=O)(=O)[O-])c3ccc4ccccc4c3C2(C)C)=[N+](CCCCS(=O)(=O)[O-])c2ccc3ccccc3c21.[Na+]` [ICG, Indocyanine green], the fluorescence intensity lost [1] is listed as 20% and the “reduction of absorbance at spectral peak” value [2] is listed as 10%.
